Source: paper PMC6323428, “Elucidation of the Intestinal Absorption Mechanism of Loganin in the Human Intestinal Caco-2 Cell Model” (Evidence-based Complementary and Alternative Medicine : eCAM, 2018)
Entries after “also recorded” stand apart in the source; their conditions may differ.

Tests used:
P-glycoprotein (P-gp) [1] = molecular target: T1, P-glycoprotein (P-gp) (Homo sapiens, UniProt P08183); experiment: Loganin transport across Caco-2 monolayers with P-gp inhibitor verapamil; format: in vitro ADME
T1 construct: endogenous in cells; host or cells: Caco-2 monolayers
Description: (§1) Before the experiments, the human intestinal Caco-2 cell monolayers were washed twice with HBSS medium (pH 7.4). The transport experiments were conducted by adding the drug solutions (containing 1% DMSO) to either the apical (AP, 0.5 mL) or basolateral side (BL, 1.0 mL), while the receiving chamber contained the corresponding volume of blank HBSS medium. The monolayers were incubated at 37°C, and 50 μL samples were taken at 15, 30, 45, 60, 90, and 120 min from the acceptor compartment, and the volume was then immediately replaced with50 μL of fresh, prewarmed blank HBSS. TEER measurements for assessing the membrane integrity took place before and after the experiment. The samples were frozen immediately and stored below −80°C before analysis.
(§2) Several efflux and influx transporters were investigated for their effects on the transport flux of loganin. One hundred μM verapamil was added to evaluate the selectivity of P-glycoprotein (P-gp); inhibiting the efflux by multidrug resistance-associated proteins (MRPs) was undertaken by adding 100μM MK571, 50μM benzbromarone, and 200μM indomethacin [21–23]; 25 μM apigenin was used to investigate breast cancer resistance protein (BCRP); 50 μM sodium vanadate and cimetidine were used as Na^+/K^+pump and […] inhibitors.
(§3) UPLC-MS/MS data acquisition was performed using Analyst 1.5.2 and MultiQuant 2.1.1 software (Applied Biosystems). The data were analyzed by SPSS Software. The apparent permeability coefficient (Papp) was calculated according to Papp = (dQ/dt)/(A·C0)
(§4) where dQ/dt is the steady-state flux (nmol/s), A is the surface area of the insert (cm^2); C0 is the initial concentration. The efflux ratio (P) was determined by calculating the ratio of PappBA versus PappAB as in(1) P=PappBA/PappAB Statistical analysis was performed with analysis of variance (ANOVA) after confirmation of normal distributions.

P-glycoprotein (P-gp) [2] = system: T2, P-glycoprotein (P-gp); experiment: as above; format: in vitro ADME, human; details: human, Caco-2, pH 7.4; with verapamil 100 μM, loganin 20 μM, n = 3
T2 construct: endogenous in cells; host or cells: Caco-2 monolayers
Description: as §1, §2, §3, §4

MRP2 [3] = molecular target: T3, MRP2 (Homo sapiens, UniProt Q92887); experiment: Loganin transport across Caco-2 monolayers with MRP2 inhibitor indomethacin; format: in vitro ADME; set-up: key to Modulatory effect: +: Indicates that the inhibitor has significant effect on the loganin transport
T3 construct: MRP2 and MRP3 were the main apically and basolaterally localized MRPs of the Caco-2 cells; endogenous in cells; host or cells: Caco-2 monolayers
Description: as §1, §2, §3, §4

MRP2 [4] = system: T4, MRP2; experiment: as above; format: in vitro ADME, human; set-up: key to Modulatory effect: +: Indicates that the inhibitor has significant effect on the loganin transport; details: human, Caco-2, pH 7.4; with indomethacin 200 μM, loganin 20 μM, n = 3
T4 construct: MRP2 and MRP3 were the main apically and basolaterally localized MRPs of the Caco-2 cells; endogenous in cells; host or cells: Caco-2 monolayers
Description: as §1, §2, §3, §4

[5] = set-up: method as in PMID 35540372; details: rats; cited from earlier work
[6] = stated as well known, no reference given; cited from earlier work
Na+/K+ pump = experiment: Loganin transport across Caco-2 monolayers with Na+/K+ pump inhibitor sodium vanadate; format: in vitro ADME, human; details: human
Description: as §1, §2, §3, §4

Na^+/K^+pump = experiment: as above; format: in vitro ADME, human; details: pretreatment with 50 μM sodium vanadate
Description: as §1, §2, §3, §4

[7] = system: human intestinal Caco-2 cell monolayers; experiment: Bidirectional transport across Caco-2 cell monolayers (concentration, time, pH, temperature; control without inhibitor); format: in vitro ADME
Description: (§5) Cells were maintained in DMEM with 10% FBS, 1× nonessential amino acids, and 1× penicillin and streptomycin at 37°C with 5% CO2. Cells of passage 35-40 were used in this study to maintain relatively constant cellular phenotypes. The medium was replaced every 2-3 days during incubation. After reaching approximately 80% confluence, the cells were detached using 0.02% ethylenediaminetetraacetic acid (EDTA) and 0.05% trypsin at a density of 5.3×10^4 cells/cm^2 on a 60-mm plastic culture dish for the uptake experiment or a 12-mm polyester membrane insert in a 12-well plate for the permeation experiment. The media in the culture plates were changed every two days for the first week after seeding and replaced daily afterward. The integrity of the cell monolayers was examined by measuring the transepithelial electrical resistance (TEER) with a Millicell-ERS-electrode (Millipore Corp, Billerica, MA, USA). After 21-23 days, monolayers with a TEER value (TEER=[TEERtest- TEERbackground]×area) above 500Ωcm^2 were used during the transport experiments.
as §1
(§6) The loganin transport (20 μM) at 4°C and 37°C was evaluated in the AP to BL direction to investigate the effect of temperature. The effect of pH on the loganin transport (20 μM) in the AP to BL direction was studied using the following pH combinations for the HBSS in the acceptor/donor compartments: 6.0/7.4 and 7.4/7.4.
as §3, §4

[8] = as above; format: in vitro ADME, human; details: human; for Papp A→B at 60 min, 20 µM: Caco-2, pH 7.4, loganin 20 μM, AP to BL
Description: as §5, §1, §6, §3, §4

[9] = system: human intestinal Caco-2 cells; experiment: MTT cytotoxicity (cell viability) assay; format: cell-based; details: MTT, n = 5, mean ± SD
Description: Cell viability was assessed using an MTT assay. Briefly, 0.1 mL of human intestinal Caco-2 cells was seeded onto 96-well plates at a density of 1×10^5 cells per well in a 96-well plate. The cells were grown in an atmosphere with 5% CO2 and 95% relative humidity over approximately 48 h. Subsequently, the culture medium was replaced with HBSS containing different concentrations of loganin (0.1-200 μM); the final concentration of dimethyl sulfoxide (DMSO) in HBSS remained at <1%. The negative control was HBSS containing 1% DMSO. […] Then, 0.2 mL of 0.5mg/mL MTT solution was added to each well and incubated for 4 h in dark. The medium was then removed, the MTT-formazan crystals were solubilized by incubating with 150 μL of DMSO with gentle shaking for 10 min, and absorbance was determined at 490 nm in a Multiskan Spectrum microplate reader (Thermo Labsystems, MA, USA). In each MTT assay, every sample was tested in five replicates and the viability of the nontreated control cells was arbitrarily defined as 100%.

[10] = Caco-2, pH 7.4, with sodium vanadate 50 μM, loganin 20 μM, n = 3
[11] = Caco-2, pH 7.4, control, no inhibitor, loganin 20 μM, n = 3

T1 sequence (P08183 whole entry): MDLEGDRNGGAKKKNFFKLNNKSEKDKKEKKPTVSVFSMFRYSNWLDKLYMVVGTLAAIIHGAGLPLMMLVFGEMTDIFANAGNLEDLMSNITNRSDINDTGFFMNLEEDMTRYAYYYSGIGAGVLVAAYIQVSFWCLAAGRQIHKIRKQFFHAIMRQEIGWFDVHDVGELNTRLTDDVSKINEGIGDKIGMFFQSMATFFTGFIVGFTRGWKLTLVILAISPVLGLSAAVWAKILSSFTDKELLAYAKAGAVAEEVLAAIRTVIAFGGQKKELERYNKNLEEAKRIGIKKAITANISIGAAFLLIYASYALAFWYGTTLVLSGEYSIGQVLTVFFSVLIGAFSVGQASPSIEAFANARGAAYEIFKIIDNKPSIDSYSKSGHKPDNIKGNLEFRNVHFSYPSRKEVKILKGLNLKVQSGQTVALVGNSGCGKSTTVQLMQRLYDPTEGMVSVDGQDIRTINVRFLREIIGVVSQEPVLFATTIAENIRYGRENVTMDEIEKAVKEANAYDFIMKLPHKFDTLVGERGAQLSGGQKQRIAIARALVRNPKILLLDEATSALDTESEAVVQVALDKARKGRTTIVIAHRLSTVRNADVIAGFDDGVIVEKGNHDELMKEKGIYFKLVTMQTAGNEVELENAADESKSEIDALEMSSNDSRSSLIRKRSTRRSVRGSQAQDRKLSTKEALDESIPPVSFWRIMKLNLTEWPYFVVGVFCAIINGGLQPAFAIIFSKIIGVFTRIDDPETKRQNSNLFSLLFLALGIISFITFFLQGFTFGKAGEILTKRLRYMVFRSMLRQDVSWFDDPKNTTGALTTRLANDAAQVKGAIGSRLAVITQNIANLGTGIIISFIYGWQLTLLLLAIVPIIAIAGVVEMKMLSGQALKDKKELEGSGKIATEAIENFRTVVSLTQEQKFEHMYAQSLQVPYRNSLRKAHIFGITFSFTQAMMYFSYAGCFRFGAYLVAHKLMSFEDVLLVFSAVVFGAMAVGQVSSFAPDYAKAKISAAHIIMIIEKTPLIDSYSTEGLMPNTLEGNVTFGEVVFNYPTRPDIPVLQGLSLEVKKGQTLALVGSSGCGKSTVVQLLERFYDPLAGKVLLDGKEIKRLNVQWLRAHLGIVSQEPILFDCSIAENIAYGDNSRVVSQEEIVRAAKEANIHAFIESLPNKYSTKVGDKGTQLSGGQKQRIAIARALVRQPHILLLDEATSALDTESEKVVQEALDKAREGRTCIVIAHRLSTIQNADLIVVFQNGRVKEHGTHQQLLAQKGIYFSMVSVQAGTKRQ
T3 sequence (Q92887 whole entry): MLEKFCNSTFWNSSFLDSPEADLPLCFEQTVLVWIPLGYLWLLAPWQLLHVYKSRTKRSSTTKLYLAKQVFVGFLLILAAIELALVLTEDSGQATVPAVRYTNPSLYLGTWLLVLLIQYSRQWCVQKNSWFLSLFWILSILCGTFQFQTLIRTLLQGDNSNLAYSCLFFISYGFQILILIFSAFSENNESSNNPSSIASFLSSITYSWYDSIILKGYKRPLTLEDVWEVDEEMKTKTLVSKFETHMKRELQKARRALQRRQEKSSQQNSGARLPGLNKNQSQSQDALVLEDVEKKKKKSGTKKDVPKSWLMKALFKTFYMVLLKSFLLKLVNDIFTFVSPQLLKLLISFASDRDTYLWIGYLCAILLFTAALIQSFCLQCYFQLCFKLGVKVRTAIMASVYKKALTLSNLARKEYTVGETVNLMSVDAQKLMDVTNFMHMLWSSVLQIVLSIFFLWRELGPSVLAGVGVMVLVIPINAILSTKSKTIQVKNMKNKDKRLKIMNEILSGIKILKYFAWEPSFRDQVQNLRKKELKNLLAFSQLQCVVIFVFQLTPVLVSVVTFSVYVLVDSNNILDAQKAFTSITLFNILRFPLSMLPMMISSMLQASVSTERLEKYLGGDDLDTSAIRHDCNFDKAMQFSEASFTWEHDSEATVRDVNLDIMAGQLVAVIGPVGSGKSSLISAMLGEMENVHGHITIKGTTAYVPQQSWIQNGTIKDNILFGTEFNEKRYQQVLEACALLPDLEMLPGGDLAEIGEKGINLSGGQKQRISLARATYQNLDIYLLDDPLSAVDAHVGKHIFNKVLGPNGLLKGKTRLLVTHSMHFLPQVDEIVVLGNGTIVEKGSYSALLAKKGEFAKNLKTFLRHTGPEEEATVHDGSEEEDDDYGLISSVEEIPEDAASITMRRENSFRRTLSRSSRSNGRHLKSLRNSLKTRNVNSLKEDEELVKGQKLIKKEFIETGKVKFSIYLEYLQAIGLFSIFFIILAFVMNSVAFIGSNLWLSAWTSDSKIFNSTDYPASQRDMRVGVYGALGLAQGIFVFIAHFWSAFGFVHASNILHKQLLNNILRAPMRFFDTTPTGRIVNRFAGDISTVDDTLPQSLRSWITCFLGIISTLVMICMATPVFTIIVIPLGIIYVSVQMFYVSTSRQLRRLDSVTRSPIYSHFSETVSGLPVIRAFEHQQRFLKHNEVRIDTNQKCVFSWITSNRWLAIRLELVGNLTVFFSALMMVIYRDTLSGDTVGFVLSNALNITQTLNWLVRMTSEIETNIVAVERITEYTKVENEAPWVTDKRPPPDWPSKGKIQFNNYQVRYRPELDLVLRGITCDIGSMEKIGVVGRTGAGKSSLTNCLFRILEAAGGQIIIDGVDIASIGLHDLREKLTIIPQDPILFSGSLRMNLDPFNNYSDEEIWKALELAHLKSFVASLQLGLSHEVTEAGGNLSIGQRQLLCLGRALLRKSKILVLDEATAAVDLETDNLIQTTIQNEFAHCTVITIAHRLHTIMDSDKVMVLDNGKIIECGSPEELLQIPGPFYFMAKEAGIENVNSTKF

## COC(=O)C1=CO[C@@H](O[C@@H]2O[C@H](CO)[C@@H](O)[C@H](O)[C@H]2O)[C@@H]2[C@@H](C)[C@@H](O)C[C@H]12 [loganin, Loganin]
P-glycoprotein (P-gp) [1]; human, Caco-2, pH 7.4, with verapamil 100 μM, read-out: P (efflux ratio PappBA/PappAB)
  efflux ratio at 120 min, 20 μM: 0.84
P-glycoprotein (P-gp) [1]; judged from verapamil vs control
  Substrate of P-gp (in words): not the substrate; also recorded: not a substrate
P-glycoprotein (P-gp) [1]; verapamil 100 μM
  PappAB difference between verapamil and control groups (in words): insignificant
P-glycoprotein (P-gp) [1]; with verapamil 100 μM, loganin 20 μM, n = 3
  PappAB: 11.1±1.7 ×10^−6cm/s
P-glycoprotein (P-gp) [2]
  Papp B→A at 120 min, 20 μM: 9.3 ± 1.7 ×10⁻⁶ cm/s
MRP2 [3]; human, Caco-2, pH 7.4, with indomethacin 200 μM, read-out: P (efflux ratio PappBA/PappAB)
  efflux ratio at 120 min, 20 μM: 0.18
MRP2 [3]; with indomethacin 200 μM
  Modulatory effect: +
MRP2 [3]; with indomethacin, p < 0.01
  Increase of PappAB vs control: 2.0 fold
MRP2 [4]
  Papp A→B at 120 min, 20 μM: 24.7 ± 4.8 ×10⁻⁶ cm/s
  Papp B→A at 120 min, 20 μM: 4.4 ± 1.1 ×10⁻⁶ cm/s
[5]
  Oral bioavailability (in words): low
[6]
  Water solubility (in words): low
Na+/K+ pump; Caco-2, pH 7.4, with sodium vanadate 50 μM, read-out: P (efflux ratio PappBA/PappAB)
  efflux ratio at 120 min, 20 μM: 0.73
Na+/K+ pump; [10]
  Papp A→B at 120 min, 20 μM: 12.3 ± 0.7 ×10⁻⁶ cm/s
  Papp B→A at 120 min, 20 μM: 9 ± 1.1 ×10⁻⁶ cm/s
Na^+/K^+pump
  Effect on Papp values (in words): no significant effects
[7]; classification by Papp > 1×10^−5cm/s = high absorption (>70%)
  Intestinal absorption indicated by Papp values (in words): good intestinal absorption
[7]; loganin 20 μM, AP to BL, 60 min, p<0.05
  PappAB at pH 7.4 compared with pH 6 (in words): significantly higher
[8]; 4°C
  Papp A→B at 60 min, 20 µM: 7.12 ×10⁻⁶ cm/s
[8]; 37°C
  Papp A→B at 60 min, 20 µM: 11.3 ×10⁻⁶ cm/s
[8]; [11]
  Papp A→B at 120 min, 20 μM: 13 ± 0.7 ×10⁻⁶ cm/s
  Papp B→A at 120 min, 20 μM: 11.7 ± 0.9 ×10⁻⁶ cm/s
[8]; Caco-2, pH 7.4, control, no inhibitor, loganin 20 μM, read-out: P (efflux ratio PappBA/PappAB)
  efflux ratio at 120 min, 20 μM: 0.9
[8]; Caco-2, pH 7.4, range over 5, 20, 40 and 80 μM loganin, read-out: Absorptive permeability PappAB (AP to BL)
  Papp A→B at 120 min: 12.2 to 14.8 ×10⁻⁶ cm/s
[8]; Caco-2, pH 7.4, range over 5, 20, 40 and 80 μM loganin, read-out: Secretory permeability PappBA (BL to AP)
  Papp B→A at 120 min: 11.1 to 13 ×10⁻⁶ cm/s
[9]; loganin 0.1 μM
  Survival Rates: 107.66±10.9%
[9]; loganin 1 μM
  Survival Rates: 108.73±25.4%
